# Experimental data taken from patent US20180133203A1, “METHODS OF TREATING LIVER DISEASE” (Gilead Sciences, Inc., priority 2016, published 2018).
# Legend:
# FFD mice = experiment: Hepatic steatosis (% vacuolation area, H&E morphometry) in fast food diet (FFD) mouse model of NASH; format: in vivo, male C57BL/6 mice; settings: Formula (I) 0.15% admixture in diet, Formula (III) 10 mg/kg PO QD, months 7-10
# Method: The following study was conducted to evaluate the efficacy of the combination of an ASK1 inhibitor and an FXR agonist in a mouse model of non-alcoholic steatohepatitis (NASH), relative to the efficacy of the individual agents alone in the model. NASH was induced in male C57BL/6 mice by chronic administration of a “fast food” diet (FFD) high in saturated fats, cholesterol and sugars for a total of 10 months, whereas lean control animals were maintained on a normal chow diet. A NASH phenotype was established in FFD mice compared to control mice by 7 months, and was characterized by obesity, hypercholesterolemia, and AST/ALT elevation; and by histological features of NASH such as hepatocellular macrovesicular steatosis and ballooning degeneration. […] Endpoint analyses included morphometric quantification of liver steatosis (% of steatotic area), liver cholesterol content, serum ALT/AST levels, serum bile acid levels, and nanostring evaluation of gene expression. […] Extent of steatosis was determined on H&E stained tissue sections using the Definiens Developer software package. […] The number and size of these areas were enumerated and the total steatotic area was expressed as a percentage of total liver tissue cross-sectional area. […]
# CDHFD/NaNO2 rats = experiment: Quantitative IHC of the myofibroblast marker desmin in liver, CDHFD/NaNO2 rat model of NASH; format: in vivo, male Wistar rats; settings: for liver % desmin marker area: mean±SEM, vehicle-treated CDHFD/NaNO2 rats 10.3±0.8%, healthy control 0.7±0.1%; for reduction of liver desmin staining: vs vehicle-treated CDHFD/NaNO2 rats, Formula (I) 0.2% in diet, Formula (III) 30 mg/kg/day, week 4 to 14
# Method: The following study was conducted to evaluate the efficacy of the combination of an ASK1 inhibitor and an FXR agonist in a rodent model of non-alcoholic steatohepatitis (NASH), relative to the efficacy of the individual agents alone in the model. NASH was induced in male Wistar rats by administration of a choline-deficient high fat diet (CDHFD) combined with the chronic administration of sodium nitrite (CDHFD/NaNO2). The model capitalizes on the “two hit theory” of NASH by inducing both metabolic dysfunction (CDHFD) and oxidative stress (NaNO2) in the liver to result in hepatic fibrosis that is similar in character and severity to that seen in patients with advanced NASH. Rats were fed CDHFD for a total of 14 weeks and were administered NaNO2 from week 4 to 14. The compound of Formula (III) (given as admixture in diet, adjusted to deliver 30 mg/kg/day), compound of Formula (I) (administered as a 0.2% admixture in diet), or vehicle was administered from week 4 to 14. The following endpoints were assessed at the completion of the 14 week study: i) liver fibrosis measured by liver hydroxyproline (OHP) content and by quantitative morphometric analysis of collagen content by Picosirius red (PSR) staining; ii) myofibroblast activation in liver sections as measured by quantitative IHC of the myofibroblast marker desmin; and, iii) Col1a1 and Timp1 in liver tissue measured by RT-PCR. All CDHFD/NaNO2 animals were fed a choline-deficient high-fat diet (CDHFD; Research Diets, Inc) for 14 weeks and were also administered intraperitoneal injections of NaNO2 (3 injections per week; Sigma Aldrich #31443) at a dose of 25 mg/kg (from week 4 to 10) and at a dose of 12.5 mg/kg (from week 10 to 14). Formula (III) (given as admixture in the CDHFD diet, adjusted to deliver 30 mg/kg/day, n=10 animals per group) and Formula (I) (given as a 0.2% admixture in the CDHFD diet, n=10 per group) were administered drug from week 4 to 14. Vehicle control animals were administered the same CDHFD diet with no drug added (Vehicle; n=10 animals per group) from week 4 to 14. […] On the final day of study, rats received a single oral gavage of either Formula (I) or Formula (III) at a dose of 30 mg/kg, four hours before animals were euthanized and tissues were collected for analyses. All endpoints were assessed at the completion of the 14 week study protocol. Whole slide images of Picrosirius Red (PSR) and Desmin stained slides were captured using a Leica AT2 scanner at 40× magnification. […] Quantitative image analysis was performed on the whole slide-scan images using Definiens Tissue Studio Architect XD (Definiens Inc.) to determine the extent and intensity of PSR and Desmin. […] The total PSR-stained area and Desmin IHC staining were measured and expressed as a percentage of total liver area stained.
Compound,reduction in steatosis (H&E stained liver sections) (FFD mice) [%],liver % desmin marker area (CDHFD/NaNO2 rats) [%],reduction of liver desmin staining (CDHFD/NaNO2 rats) [%]
O=C(Nc1cccc(-c2nncn2C2CC2)c1)c1cc(-n2cnc(C3CC3)c2)ccn1 [Formula (I)],39,5.6±0.7,46
O=C(O)c1ccnc(N2CC(O)(c3ccc(OCc4c(-c5c(Cl)cccc5Cl)noc4C4CC4)cc3Cl)C2)c1 [Formula (III)],27,5.9±0.7,43
